System: DLB rats
Assay: Object recognition test in DLB rats
Type: in vivo, rat
Details: group A3, 100 mg/kg/day IP for 27 days, test on 27th day, p<0.05
Description: Saline is also used to be administrated to the normal rats of group A1.
Recognition ability of the rats of groups A1-A3 is measured using the object recognition test (Ho et al., Behav Brain Res 268: 177-184, 2014). Specifically, on the 25th & 26th day, the rat “M” under the test is placed in an open box, shown as FIG. 2a, for 5 minutes. Three flavorless objects (objects O1, O2 & O3) with the same size, color, shape and material are respectively fixed at three corners of the open box.
On the 27th day, the rat “M” under the test is first placed in the open box shown as FIG. 2a, and the time spent exploring the object O1 (T01) and the total time spent exploring the objects O1, O2 & O3 (TO1+O2+O3) are recorded, respectively. The percentage of the exploration time spent on the object O1 is calculated as (TO1/TO1+O2+O3)*100%. After 5 minutes, a novel object O4 with different size, color, shape and material is used to replace the object O1 (shown in FIG. 2b), and the rat “M” under the test is placed in the open box. The time spent exploring the novel object O4 (TO4) and the total time spent exploring the objects O2 & O3 and the novel object O4 (TO2+O3+O4) are respectively recorded, and the percentage of the exploration time spent on the novel object O4 is calculated as (TO4/TO2+O3+O4)*100%.

Structure (SMILES): CO/N=C(\C(=O)N[C@@H]1C(=O)N2C(C(=O)O)=C(CSc3nc(=O)c(=O)[nH]n3C)CS[C@H]12)c1csc(N)n1 [ceftriaxone]
- recognition of the novel object O4 (percentage of time exploring object): can recognize the novel object O4

Reference: patent US20190030042A1, “Method for Treating Dementia with Lewy Bodies” (BrainX CORPORATION, priority 2017, published 2019)
